According to ChEMBL document CHEMBL4257449, “New N-(2-phenyl-4-oxo-1,3-thiazolidin-3-yl)-1,2-benzothiazole-3-carboxamides and acetamides as antimicrobial agents” (2017):
≈ marks a conversion by molar mass, not a printed value.

What was measured:
[1] = tested on: Salmonella typhimurium; assay: Bactericidal activity against Salmonella typhimurium ATCC 13311 incubated for 24 hrs followed by serial sub-cultivation and measured after 24 hrs by microdilution method; assay type: functional, Salmonella enterica subsp. enterica serovar Typhimurium
[2] = tested on: Staphylococcus aureus; assay: Antibacterial activity against Staphylococcus aureus ATCC 6538 after 24 hrs by microdilution method; assay type: functional; details: ATCC 6538, 24 h
[3] = tested on: Pseudomonas aeruginosa; assay: Antibacterial activity against Pseudomonas aeruginosa ATCC 27853 after 24 hrs by microdilution method; assay type: functional; details: ATCC 27853, 24 h
[4] = tested on: Aspergillus niger; assay: Fungicidal activity against Aspergillus niger ATCC 6275 incubated for 72 hrs followed by serial sub-cultivation for 72 hrs and measured after 72 hrs by serial dilution method; assay type: functional
[5] = tested on: Bacillus cereus; assay: Bactericidal activity against Bacillus cereus incubated for 24 hrs followed by serial sub-cultivation and measured after 24 hrs by microdilution method; assay type: functional
[6] = tested on: Pseudomonas aeruginosa; assay: Bactericidal activity against Pseudomonas aeruginosa ATCC 27853 incubated for 24 hrs followed by serial sub-cultivation and measured after 24 hrs by microdilution method; assay type: functional
[7] = tested on: Trichoderma viride; assay: Fungicidal activity against Trichoderma viride IAM 5061 incubated for 72 hrs followed by serial sub-cultivation for 72 hrs and measured after 72 hrs by serial dilution method; assay type: functional
[8] = tested on: Aspergillus fumigatus; assay: Fungicidal activity against Aspergillus fumigatus incubated for 72 hrs followed by serial sub-cultivation for 72 hrs and measured after 72 hrs by serial dilution method; assay type: functional
[9] = tested on: Bacillus cereus; assay: Antibacterial activity against Bacillus cereus after 24 hrs by microdilution method; assay type: functional
[10] = tested on: Salmonella typhimurium; assay: Antibacterial activity against Salmonella typhimurium ATCC 13311 after 24 hrs by microdilution method; assay type: functional, Salmonella enterica subsp. enterica serovar Typhimurium; details: Salmonella enterica, ATCC 13311, 24 h
[11] = tested on: Micrococcus flavus; assay: Antibacterial activity against Micrococcus flavus ATCC 10240 after 24 hrs by microdilution method; assay type: functional; details: ATCC 10240, 24 h
[12] = tested on: Aspergillus fumigatus; assay: Antifungal activity against Aspergillus fumigatus after 72 hrs by serial dilution method; assay type: functional
[13] = tested on: Talaromyces funiculosus; assay: Fungicidal activity against Penicillium funiculosum ATCC 36839 incubated for 72 hrs followed by serial sub-cultivation for 72 hrs and measured after 72 hrs by serial dilution method; assay type: functional
[14] = tested on: Penicillium ochrochloron; assay: Fungicidal activity against Penicillium ochrochloron ATCC 9112 incubated for 72 hrs followed by serial sub-cultivation for 72 hrs and measured after 72 hrs by serial dilution method; assay type: functional
[15] = tested on: Enterobacter cloacae; assay: Antibacterial activity against Enterobacter cloacae after 24 hrs by microdilution method; assay type: functional
[16] = tested on: Aspergillus versicolor; assay: Fungicidal activity against Aspergillus versicolor ATCC 11730 incubated for 72 hrs followed by serial sub-cultivation for 72 hrs and measured after 72 hrs by serial dilution method; assay type: functional
[17] = tested on: Listeria monocytogenes; assay: Bactericidal activity against Listeria monocytogenes NCTC 7973 incubated for 24 hrs followed by serial sub-cultivation and measured after 24 hrs by microdilution method; assay type: functional
[18] = tested on: Candida albicans; assay: Antifungal activity against Candida albicans after 72 hrs by serial dilution method; assay type: functional
[19] = tested on: Micrococcus flavus; assay: Bactericidal activity against Micrococcus flavus ATCC 10240 incubated for 24 hrs followed by serial sub-cultivation and measured after 24 hrs by microdilution method; assay type: functional
[20] = tested on: Aspergillus versicolor; assay: Antifungal activity against Aspergillus versicolor ATCC 11730 after 72 hrs by serial dilution method; assay type: functional; details: ATCC 11730, 72 h
[21] = tested on: Talaromyces funiculosus; assay: Antifungal activity against Penicillium funiculosum ATCC 36839 after 72 hrs by serial dilution method; assay type: functional; details: ATCC 36839, 72 h
[22] = tested on: Candida albicans; assay: Fungicidal activity against Candida albicans incubated for 72 hrs followed by serial sub-cultivation for 72 hrs and measured after 72 hrs by serial dilution method; assay type: functional
[23] = tested on: Penicillium ochrochloron; assay: Antifungal activity against Penicillium ochrochloron ATCC 9112 after 72 hrs by serial dilution method; assay type: functional; details: ATCC 9112, 72 h
[24] = tested on: Enterobacter cloacae; assay: Bactericidal activity against Enterobacter cloacae incubated for 24 hrs followed by serial sub-cultivation and measured after 24 hrs by microdilution method; assay type: functional
[25] = tested on: Escherichia coli; assay: Antibacterial activity against Escherichia coli ATCC 35210 after 24 hrs by microdilution method; assay type: functional; details: ATCC 35210, 24 h
[26] = tested on: Aspergillus ochraceus; assay: Antifungal activity against Aspergillus ochraceus ATCC 12066 after 72 hrs by serial dilution method; assay type: functional; details: ATCC 12066, 72 h
[27] = tested on: Aspergillus ochraceus; assay: Fungicidal activity against Aspergillus ochraceus ATCC 12066 incubated for 72 hrs followed by serial sub-cultivation for 72 hrs and measured after 72 hrs by serial dilution method; assay type: functional
[28] = tested on: Staphylococcus aureus; assay: Bactericidal activity against Staphylococcus aureus ATCC 6538 incubated for 24 hrs followed by serial sub-cultivation and measured after 24 hrs by microdilution method; assay type: functional
[29] = tested on: Aspergillus niger; assay: Antifungal activity against Aspergillus niger ATCC 6275 after 72 hrs by serial dilution method; assay type: functional; details: ATCC 6275, 72 h
[30] = tested on: Trichoderma viride; assay: Antifungal activity against Trichoderma viride IAM 5061 after 72 hrs by serial dilution method; assay type: functional; details: IAM 5061, 72 h
[31] = tested on: Escherichia coli; assay: Bactericidal activity against Escherichia coli ATCC 35210 incubated for 24 hrs followed by serial sub-cultivation and measured after 24 hrs by microdilution method; assay type: functional
[32] = tested on: Listeria monocytogenes; assay: Antibacterial activity against Listeria monocytogenes NCTC 7973 after 24 hrs by microdilution method; assay type: functional; details: NCTC 7973, 24 h

Row | Compound | MBC99.5 [1] [×10⁻² umol/ml] | MIC [2] [µM] | MIC [3] [µM] | MFC99.5 [4] [×10⁻² umol/ml] | MBC99.5 [5] [×10⁻² umol/ml] | MBC99.5 [6] [×10⁻² umol/ml] | MFC99.5 [7] [×10⁻² umol/ml] | MFC99.5 [8] [×10⁻² umol/ml] | MIC [9] [µM] | MIC [10] [µM] | MIC [11] [µM] | MIC [12] [µM] | MFC99.5 [13] [×10⁻² umol/ml] | MFC99.5 [14] [×10⁻² umol/ml] | MIC [15] [µM] | MFC99.5 [16] [×10⁻² umol/ml] | MBC99.5 [17] [×10⁻² umol/ml] | MIC [18] [µM] | MBC99.5 [19] [×10⁻² umol/ml] | MIC [20] [µM] | other results
1 | O=C(Cc1nsc2ccccc12)NN1C(=O)CSC1c1ccccc1 (stereo unspecified) | 40.5 | 216 (≈ 79.8 µg/mL) | 216 (≈ 79.8 µg/mL) | 21.6 | 40.5 | 40.5 | 10.8 | 40.5 | 216 (≈ 79.8 µg/mL) | 216 (≈ 79.8 µg/mL) | 297 (≈ 110 µg/mL) | 108 (≈ 39.9 µg/mL) | 21.6 | 21.6 | 108 (≈ 39.9 µg/mL) | 40.5 | 40.5 | 216 (≈ 79.8 µg/mL) | 40.5 | 216 (≈ 79.8 µg/mL) | MIC [21]: 216 µM (≈ 79.8 µg/mL); MFC99.5 [22]: 40.5 ×10⁻² umol/ml; MIC [23]: 162 µM (≈ 59.9 µg/mL); MBC99.5 [24]: 21.4 ×10⁻² umol/ml; MIC [25]: 216 µM (≈ 79.8 µg/mL); MIC [26]: 54 µM (≈ 20 µg/mL); MFC99.5 [27]: 10.8 ×10⁻² umol/ml; MBC99.5 [28]: 40.5 ×10⁻² umol/ml; MIC [29]: 162 µM (≈ 59.9 µg/mL); MIC [30]: 54 µM (≈ 20 µg/mL); MBC99.5 [31]: 40.5 ×10⁻² umol/ml; MIC [32]: 216 µM (≈ 79.8 µg/mL)
2 | O=C(Cc1nsc2ccccc12)N/N=C/c1c(F)cccc1F | 23.2 | 29 (≈ 9.61 µg/mL) | 116 (≈ 38.4 µg/mL) | 24.1 | 23.2 | 23.2 | 12.1 | 96.4 | 116 (≈ 38.4 µg/mL) | 116 (≈ 38.4 µg/mL) | 116 (≈ 38.4 µg/mL) | 482 (≈ 160 µg/mL) | 12.1 | 24.1 | 116 (≈ 38.4 µg/mL) | 12.1 | 23.2 | 121 (≈ 40.1 µg/mL) | 23.2 | 91 (≈ 30.2 µg/mL) | MIC [21]: 91 µM (≈ 30.2 µg/mL); MFC99.5 [22]: 24.1 ×10⁻² umol/ml; MIC [23]: 181 µM (≈ 60 µg/mL); MBC99.5 [24]: 23.2 ×10⁻² umol/ml; MIC [25]: 116 µM (≈ 38.4 µg/mL); MIC [26]: 121 µM (≈ 40.1 µg/mL); MFC99.5 [27]: 24.1 ×10⁻² umol/ml; MBC99.5 [28]: 23.2 ×10⁻² umol/ml; MIC [29]: 121 µM (≈ 40.1 µg/mL); MIC [30]: 61 µM (≈ 20.2 µg/mL); MBC99.5 [31]: 23.2 ×10⁻² umol/ml; MIC [32]: 116 µM (≈ 38.4 µg/mL)
3 | O=C(Cc1nsc2ccccc12)NN1C(=O)CSC1c1c(F)cccc1Cl (stereo unspecified) | 36.7 | 147 (≈ 62 µg/mL) | 270 (≈ 114 µg/mL) | 36.7 | 36.7 | 36.7 | 4.9 | 19.6 | 147 (≈ 62 µg/mL) | 196 (≈ 82.7 µg/mL) | 270 (≈ 114 µg/mL) | 98 (≈ 41.3 µg/mL) | 9.8 | 9.8 | 147 (≈ 62 µg/mL) | 9.8 | 73.4 | 49 (≈ 20.7 µg/mL) | 36.7 | 49 (≈ 20.7 µg/mL) | MIC [21]: 49 µM (≈ 20.7 µg/mL); MFC99.5 [22]: 9.8 ×10⁻² umol/ml; MIC [23]: 49 µM (≈ 20.7 µg/mL); MBC99.5 [24]: 19.6 ×10⁻² umol/ml; MIC [25]: 270 µM (≈ 114 µg/mL); MIC [26]: 98 µM (≈ 41.3 µg/mL); MFC99.5 [27]: 19.6 ×10⁻² umol/ml; MBC99.5 [28]: 19.6 ×10⁻² umol/ml; MIC [29]: 196 µM (≈ 82.7 µg/mL); MIC [30]: 38 µM (≈ 16 µg/mL); MBC99.5 [31]: 36.7 ×10⁻² umol/ml; MIC [32]: 367 µM (≈ 155 µg/mL)
